Measurements published in PMC5623046, “A Simple PB/LIE Free Energy Function Accurately Predicts the Peptide Binding Specificity of the Tiam1 PDZ Domain” (Frontiers in Molecular Biosciences, 2017).
“And” between values parts separate entries of the source, which are not always exact repeats. Equal entries are not always repeated. Where two headings read alike, the source gives them in different places. Marks after values point to notes of the source that are not given here.

Tests used:
[1] = target: T1, wildtype Tiam1 PDZ domain (WT) (Homo sapiens, UniProt Q13009); settings: relative to WT:Sdc1; ref Shepherd et al., [2011]; Liu et al., [2013]; cited from earlier work
T1 construct: The Tiam1 PDZ domain was purified by nickel-chelate (GE-Healthcare) and size-exclusion chromatography; His6 (N, cleaved yes); made in house; host or cells: Escherichia coli BL21(DE3)
Excerpt: Table 1 Tiam1-PDZ:peptide complexes and free energies used for model fitting. | column: Exp.^a || Table 2 Tiam1-PDZ:peptide complexes and free energies not used for model fitting. | column: Exp.^a || Table 4 Alchemical free energy simulation (FEP) results. | column: Exp. || (+ 3 further places)

Tiam1 PDZ domain K912E = settings: relative to WT:Sdc1; ref Shepherd et al., [2011]; Liu et al., [2013]; cited from earlier work
Excerpt: (§1) Table 1 Tiam1-PDZ:peptide complexes and free energies used for model fitting. | column: Exp.^a

Tiam1 PDZ domain L911M = settings: relative to WT:Sdc1; ref Shepherd et al., [2011]; Liu et al., [2013]; cited from earlier work
Excerpt: as §1

Tiam1 PDZ domain L915F = settings: relative to WT:Sdc1; ref Shepherd et al., [2011]; Liu et al., [2013]; cited from earlier work
Excerpt: as §1

[2] = system: Tiam1 PDZ domain L911M,K912E; settings: relative to WT:Sdc1; ref Shepherd et al., [2011]; Liu et al., [2013]; cited from earlier work
Excerpt: (§2) Table 1 Tiam1-PDZ:peptide complexes and free energies used for model fitting. | column: Exp.^a || Table 2 Tiam1-PDZ:peptide complexes and free energies not used for model fitting. | column: Exp.^a

[3] = system: Tiam1 PDZ domain L915F,L920V; settings: relative to WT:Sdc1; ref Shepherd et al., [2011]; Liu et al., [2013]; cited from earlier work
Excerpt: as §2

[4] = system: Tiam1 PDZ domain quadruple mutant (QM); settings: relative to WT:Sdc1; ref Shepherd et al., [2011]; Liu et al., [2013]; cited from earlier work
Excerpt: as §2

Tiam1 PDZ domain L920V = settings: ref Shepherd et al., [2011], Liu et al., [2013], cited from earlier work; for Exp. relative binding free energy ΔΔG: relative to WT:Sdc1
Excerpt: Table 1 Tiam1-PDZ:peptide complexes and free energies used for model fitting. | column: Exp.^a || Tables 1, 2 list the 44 peptide and protein variants for which experimental binding data are available along with the corresponding binding free energy differences (ΔΔG) relative to the wildtype:Sdc1 complex (WT:Sdc1), taken as a reference. Notice that positions within each peptide ligand are numbered backwards from the C-terminus (“position 0”). For two complexes, experimental measurements were not available and ΔΔG was obtained in this work using rigorous alchemical free energy simulations (see below). Seventeen of the complexes involve Tiam1 mutations at one or more of four positions. These ...

[5] = target: T1, wildtype Tiam1 PDZ domain (WT); test: Fluorescence anisotropy binding of dansylated peptides; settings: for Exp. relative binding free energy ΔΔG: relative to WT:Sdc1, this work, dansylated peptide 5–10 μM, 20 mM sodium phosphate, 50 mM NaCl, pH 6.8, 25°C, triplicate
Description: Typically, E. coli cells were grown at 37°C in Luria-Bertani (LB) medium supplemented with ampicillin (100 μg/mL) under vigorous agitation until an A600 of 0.6–0.8 was reached. Cultures were subsequently cooled to 18°C and protein expression was induced by the addition of isopropyl 1-thio-β-d-galactopyranoside (IPTG) to 1 mM final concentration. Induced cells were incubated for an additional 16–18 h at 18°C and harvested by centrifugation. The Tiam1 PDZ domain was purified by nickel-chelate (GE-Healthcare) and size-exclusion chromatography (Shepherd et al., [2010]). […] Undigested protein, cleaved His6 tag and His-tagged rTEV were separated from Tiam1 PDZ domain by nickel-chelate chromatography. The final yield was 20 mg of PDZ protein (>98% pure as judged by SDS-PAGE) from 1 L of culture. Samples were used immediately or lyophilized and stored at […].
All peptides were chemically synthesized by GenScript Inc. (Piscataway, NJ) and judged to be >95% pure based on analytical HPLC and mass spectrometry. Peptides were dansylated at their N-terminus. Peptide concentrations were determined by absorbance measurements (A280) using their predicted extinction coefficient. The peptides used in this study were Syndecan1 (Sdc1) point mutants and double mutants: Sdc1 (residues 303–310 of the full Syndecan protein: TKQEEFYACOOH), Sdc1-A0M (residues 303–310: TKQEEFYMCOOH), Sdc1-F2R (residues 303–310: TKQEERYACOOH), Sdc1-F2R/A0M (residues 303–310: TKQEERYMCOOH), Sdc1-F2A (residues 303–310: TKQEEAYACOOH), Sdc1-F2N (residues 303-310: TKQEENYACOOH), Sdc1-F2I (residues 303–310: TKQEEIYACOOH), Sdc1-E4L (residues 303–310: TKQLEFYACOOH), Sdc1-E3D/Y1T (residues 303–310: TKQEDFTACOOH), and Sdc1-E3T/Y1K (residues 303–310: TKQETFKACOOH). Notice that here and below, for the Sdc1 and other peptides, we number residue positions counting backwards from the peptide C-terminus (position 0). Thus, Sdc1-F2R is mutated at the third position from the C-terminus, which is usually called “position −2” (Shepherd and Fuentes, [2011]). We drop the negative sign to keep the notation simple.
Fluorescence anisotropy was used to monitor the binding of Tiam1 PDZ domain proteins to dansylated peptides. Anisotropy measurements were carried out on a Fluorolog3 (Jobin Yvon, Horiba, NJ) spectrofluorimeter (γex = 340 and γem = 550 nm). All data collection, fitting, and thermodynamic analyses were performed as previously described (Shepherd et al., [2011]). Binding experiments were conducted in 1.3 mL of binding buffer (20 mM sodium phosphate, 50 mM NaCl and pH 6.8) containing peptide at a concentration of 5–10 μM. Measurements were made in a 2 mL quartz cuvette that was stirred and maintained at constant 25°C temperature. The slit widths for the control of excitation and emission intensity were adjusted to the signal-to-noise ratio and maximum intensity and set in the range of 6–9 nm. A ratio of 1:100 and 1:10 dilutions of the stock PDZ protein solution (~1 mM) were prepared in binding buffer. For each experiment, 20–30 individual titration steps were performed until the sample had little or no change in anisotropy. The change in fluorescence anisotropy was plotted against protein concentration and fit to a standard hyperbolic ligand-binding curve. Each titration was carried out in triplicate.

[6] = target: Syndecan-1 (Sdc1) peptide (Homo sapiens) (UniProt P18827); settings: cited from earlier work
Chain of Syndecan-1 (Sdc1) peptide (Homo sapiens) (P18827 23-310): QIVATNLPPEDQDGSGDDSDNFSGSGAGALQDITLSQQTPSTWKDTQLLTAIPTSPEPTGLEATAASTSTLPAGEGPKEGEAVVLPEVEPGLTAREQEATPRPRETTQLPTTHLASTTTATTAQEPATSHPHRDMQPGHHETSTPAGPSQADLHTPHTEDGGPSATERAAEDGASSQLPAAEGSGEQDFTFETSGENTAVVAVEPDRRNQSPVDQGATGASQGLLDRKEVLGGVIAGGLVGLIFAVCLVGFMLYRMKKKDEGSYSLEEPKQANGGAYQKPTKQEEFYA

T1 sequence (Q13009 841-930 limits assumed): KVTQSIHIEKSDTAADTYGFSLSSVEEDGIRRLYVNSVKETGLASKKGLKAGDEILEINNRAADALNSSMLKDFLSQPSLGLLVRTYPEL
Chain of Tiam1 PDZ (Q13009 842-911): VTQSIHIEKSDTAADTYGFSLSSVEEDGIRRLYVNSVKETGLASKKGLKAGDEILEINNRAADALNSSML

For “ENQKEYFF [Caspr4, peptide corresponding to the C-terminus of Caspr4]”, the “Exp. relative binding free energy ΔΔG” value [1] is given as -0.21 kcal/mol, the “Exp. relative binding free energy ΔΔG” value (Tiam1 PDZ domain K912E) is given as 0.46 kcal/mol and the “Exp. relative binding free energy ΔΔG” value (Tiam1 PDZ domain L911M) is given as -0.39 kcal/mol. For the same substance, the “Exp. relative binding free energy ΔΔG” value (Tiam1 PDZ domain L915F) was 0.48 kcal/mol, the “Exp. relative binding free energy ΔΔG” value [2] was 0.04 kcal/mol and the “Exp. relative binding free energy ΔΔG” value [3] was 0.62 kcal/mol. The “Exp. relative binding free energy ΔΔG” value [4] was -0.23 kcal/mol, the “Exp. relative binding free energy ΔΔG” value (Tiam1 PDZ domain L920V) was -0.54 kcal/mol and the Kd (Tiam1 PDZ domain L920V; strongest binding in the dataset) was 10.8 µM.
For “NKDKEYYV [Neur, peptide corresponding to the C-terminus of Neurexin]”, the “Exp. relative binding free energy ΔΔG” value [2] is given as 1.25 kcal/mol, the “Exp. relative binding free energy ΔΔG” value [3] is given as 1.08 kcal/mol and the “Exp. relative binding free energy ΔΔG” value [4] is given as 0.32 kcal/mol.
For SSRKEYYA [Consensus], the “Exp. relative binding free energy ΔΔG” value [1] is given as 0.84 kcal/mol.
With “TKQEDFTACOOH [Sdc1.E3D, Y1T, Sdc1 double mutant]” the “Exp. relative binding free energy ΔΔG” value [5] was 0.87^e kcal/mol.
For “TKQEEAYACOOH [Sdc1-F2A, Sdc1 point mutant, Ala at position 2]”, the “Exp. relative binding free energy ΔΔG” value [5] was ≥ 1.32 kcal/mol.
For “TKQEEFYACOOH [Sdc1, C-terminal peptide of Syndecan1, residues 303–310]”, the “Exp. relative binding free energy ΔΔG” value [1] is listed as 0.00 kcal/mol, the “Exp. relative binding free energy ΔΔG” value (Tiam1 PDZ domain K912E) is listed as 0.97 kcal/mol and the “Exp. relative binding free energy ΔΔG” value (Tiam1 PDZ domain L911M) is listed as 0.15 kcal/mol. The “Exp. relative binding free energy ΔΔG” value (Tiam1 PDZ domain L915F) was 0.65 kcal/mol, the “Exp. relative binding free energy ΔΔG” value [2] was 1.21 kcal/mol and the “Exp. relative binding free energy ΔΔG” value [3] was 1.32 kcal/mol. For the same substance, the “Exp. relative binding free energy ΔΔG” value [4] was 0.89 kcal/mol and the “Exp. relative binding free energy ΔΔG” value (Tiam1 PDZ domain L920V) was 0.31 kcal/mol.
In the case of “TKQEEFYMCOOH [Sdc1.A0M, Sdc1 point mutant, Met at position 0]”, the “Exp. relative binding free energy ΔΔG” value [5] is reported as 1.56^d kcal/mol and 1.56 kcal/mol.
With “TKQEEIYACOOH [Sdc1.F2I, Sdc1 point mutant, Ile at position 2]” the “Exp. relative binding free energy ΔΔG” value [5] was 0.80^e kcal/mol and 0.80 kcal/mol.
With “TKQEENYACOOH [Sdc1-F2N, Sdc1 point mutant, Asn at position 2]” the “Exp. relative binding free energy ΔΔG” value [5] was ≥ 1.32 kcal/mol.
With “TKQEERYACOOH [Sdc1-F2R, Sdc1 point mutant, Arg at position 2]” the “Exp. relative binding free energy ΔΔG” value [5] was ≥ 1.32 kcal/mol and the “affinity for WT (in words)” value ([5]; this work) was “does not have a detectable affinity”.
For “TKQETFKACOOH [Sdc1.E3T, Y1K, Sdc1 double mutant]”, the “Exp. relative binding free energy ΔΔG” value [5] was 1.33^e kcal/mol and the “Exp. relative binding free energy ΔΔG” value ([5]; listed as Sdc1-E3T,Y1K) was 1.33 kcal/mol.
With “TKQLEFYACOOH [Sdc1.E4L, Sdc1 point mutant, Leu at position 4]” the “Exp. relative binding free energy ΔΔG” value [5] was 0.56^e kcal/mol.
For Tiam1 PDZ (from UniProt Q13009), the Kd [6] is given as 26.9 µM.
In the case of “YAAEKYWA [peptide from a combinatorial library]”, the “Exp. relative binding free energy ΔΔG” value [1] is listed as 0.72 kcal/mol.
For YAAGRKHF, the “Exp. relative binding free energy ΔΔG” value [1] is given as ≥ 1.32^g kcal/mol.
In the case of “YAAKAFRF [peptide from a combinatorial library]”, the “Exp. relative binding free energy ΔΔG” value [1] is listed as 1.17 kcal/mol.
In the case of YAAKRTYV, the “Exp. relative binding free energy ΔΔG” value [1] is listed as ≥ 1.32^g kcal/mol.
In the case of YAALIHKF, the “Exp. relative binding free energy ΔΔG” value [1] is listed as ≥ 1.32^g kcal/mol.
For YAAQKHFH, the “Exp. relative binding free energy ΔΔG” value [1] is listed as ≥ 1.32^g kcal/mol.
For YAARKFAK, the “Exp. relative binding free energy ΔΔG” value [1] is given as ≥ 1.32^g kcal/mol.
For YAAYRYRA, the “Exp. relative binding free energy ΔΔG” value [1] is given as ≥ 1.32^g kcal/mol.
